Reference: patent US12110507B2, “Method for preparing functional hepatic progenitor cells or hepatic cells, or functional small intestinal epithelial progenitor cells or small intestinal epithelial cells” (priority 2017, dated 2024)
Where two headings read alike, the source gives them in different places.

Columns and labels:
[1] = system: hepatic progenitor cells differentiated from iPSC-K cells; assay: culture of hepatic progenitor cells differentiated from iPSC-K cells in the presence of an antibiotic (selection); type: cell-based, human; conditions: for colony of cells after culture with antibiotic: concentration and culture period of each antibiotic as in Table 5
Method: The iPSC-K cells were cultured until becoming approximately 80% confluent. […] The colony was dissociated by gentle tapping of the dish and then suspended by the addition of hiPSC medium. The obtained cell suspension was transferred to a dish coated with gelatin, and incubated under conditions of 15 minutes, 37° C., and 5% CO2 to remove the feeder cells. The supernatant was centrifuged, and the recovered iPSC-K cells were suspended in EB medium (having the composition described below).
The EBs were recovered and suspended in XF32 medium (Uchida, H. et al., JCI Insight, 2017; 2 (1): e86492, doi:10.1172/jci.insight.86492). The EBs were placed at a concentration of 20 EBs/well in a 24-well plate coated with collagen, and differentiated into hepatic progenitor cells by adhesion culture at 37° C. for 35 days in 5% CO2. Then, the cells were further cultured for 2 days using modified SCM-6F8 medium (Wang, X. et al., Nature, 2015; 522 (7555): 173-8, doi:10.1038/nature14484, Epub 2015 Jun. 3) supplemented with 3 μg/ml puromycin (Wako Pure Chemical Industries, Ltd., #160-23151).
Functional hepatic progenitor cells were prepared from iPSC-K cells by the same procedures as in the sections (2-1) and (2-2) except that various antibiotics were used instead of puromycin. The antibiotics used and their concentrations, and the number of culture days will be shown below.

[2] = system: hepatic progenitor cells differentiated from SEES5 cells; assay: culture of hepatic progenitor cells differentiated from SEES5 cells in the presence of an antibiotic (selection); type: cell-based, human; conditions: for colony of cells after culture with antibiotic: concentration and culture period of each antibiotic as in Table 6 (3 days)
[3] = system: gut organoid differentiated from Edom-iPS cells; assay: culture of gut organoid in the presence of puromycin; type: cell-based; conditions: 2 days
Method: Gut organoid was prepared from Edom-iPS cells (PLoS Genet., 2011; 7 (5):e1002085, doi.org/10.1371/journal.pgen.1002085), menstrual blood-derived iPS cells, according to the procedures described in Uchida, H. et al., JCI Insight, 2017; 2 (1): e86492. After a lapse of 3 months, the gut organoid was cultured for 2 days in the presence of […] puromycin.

[4] = system: functional hepatic progenitor cells prepared from iPSC-O cells; assay: selective culture with ammonia of functional hepatic progenitor cells prepared from iPSC-O cells; qRT-PCR after differentiation
[5] = system: functional hepatic progenitor cells prepared from SEES5 cells; conditions: 5 mg/ml or 8 mg/ml ammonia, 2 days, after puromycin selection
[6] = conditions of Table 6, data not shown
[7] = hepatic cells differentiated from cells selected with ammonia, qRT-PCR, vs no ammonia selection

Compound | colony of cells after culture with antibiotic [2] | CYP3A4 expression of the cells selected with antibiotic [2, 6] | colony of cells after culture with antibiotic [1] | other results
COc1ccc(C[C@H](N)C(=O)N[C@H]2[C@@H](O)[C@H](n3cnc4c(N(C)C)ncnc43)O[C@@H]2CO)cc1 [puromycin] | A colony of the cells was obtained | markedly high level | – | colony of cells after culture in the presence of puromycin ([1]; 3 μg/ml puromycin, 2 days, modified SCM-6F8 medium): colony of the cells; cells obtained after puromycin culture of gut organoid ([3]; 2 mg/ml puromycin): Functional small intestinal epithelial progenitor cells having the ability to metabolize drugs were obtained; cells obtained after puromycin culture of gut organoid ([3]; 400 mg/ml puromycin): Functional small intestinal epithelial progenitor cells having the ability to metabolize drugs were obtained
CN[C@@H]1[C@@H](O)[C@@H](O[C@@H]2[C@@H](O)[C@H](O[C@H]3O[C@H]([C@@H](C)O)[C@@H](O)[C@H](O)[C@H]3N)[C@@H](N)C[C@H]2N)OC[C@]1(C)O [G418] | A colony of the cells was obtained | markedly high level | A colony of the cells was obtained | –
phleomycin | A colony of the cells was obtained | – | A colony of the cells was obtained | –
Cc1c(N)nc([C@H](CC(N)=O)NC[C@H](N)C(N)=O)nc1C(=O)N[C@H](C(=O)N[C@H](C)[C@@H](O)[C@H](C)C(=O)N[C@H](C(=O)NCCC1=N[C@@H](c2nc(C(=O)NCCCCN=C(N)N)cs2)CS1)[C@@H](C)O)[C@@H](O[C@@H]1O[C@@H](CO)[C@@H](O)[C@H](O)[C@@H]1O[C@H]1O[C@H](CO)[C@@H](O)[C@H](OC(N)=O)[C@@H]1O)c1cnc[nH]1 [Zeocin™, phleomycin D1] | A colony of the cells was obtained | – | A colony of the cells was obtained | CYP3A4 expression of the cells selected with antibiotic [2]: markedly high level
N [ammonia] | – | – | – | colony formation after selective culture with ammonia ([4]; 5 mg/ml or 8 mg/ml ammonia, 2 days, after puromycin selection): A colony was formed; expression level of CPS1 [4, 7]: Elevation; expression level of CYP3A4 [4, 7]: further elevate; expression level of OTC [4, 7]: Elevation; colony formation after selective culture with ammonia [5]: A colony was formed
CN(CC[C@H](N)CC(=O)N[C@H]1C=C[C@H](n2ccc(N)nc2=O)O[C@@H]1C(=O)O)C(=N)N [blasticidin S] | A colony of the cells was obtained | markedly high level | A colony of the cells was obtained | –
